# Data taken from patent US11702414B2, “Thiadiazole IRAK4 inhibitors” (Gilead Sciences, Inc., priority 2018, dated 2023).
# Like-named read-outs stand apart in the source and are kept apart here.
# Tests used:
# TNFα = assay: IRAK4 Monocyte TNFα Cell Based Assay; design: species or system human; settings: Homo sapiens, Monocyte, read-out: EC50MONO TNF HTRF
# Description: IRAK4 Monocyte TNFα Cell Based Assay Procedure:
# The cell suspension was then plated at a density of 5,000 cells/well onto black 384 well Greiner clear bottom plates. Plates were pre-spotted with test compounds and serially diluted in DMSO where 40 nL/well were delivered using the Echo 550 acoustic liquid dispenser (Labcyte®) for a final DMSO concentration of 0.1%. Plated cells were treated with compound for 1 hour at 37° C. Cells were then stimulated with 50 pg/ml of LPS (Sigma) excluding outside columns of plate used for unstimulated cell control wells. Cells were incubated for an additional 4 hours at 37° C. Cells were then spun out of the media and 5μl of sample were taken and analyzed for total TNFα content using the TR-FRET Human TNFα detection system (CisBio). This system utilizes two labeled antibodies (cryptate and XL665) that bind to two different epitopes of the TNFα molecule and produce FRET signal proportional to the concentration of TNFα in the sample. Detection antibodies are mixed 50:50 and 5 μL were dispensed into each well. Plates were covered with clear seals and incubated at room temp overnight. […] Percent of control was calculated as follows: % Control=100×(RatioSample−Ratio0% Stimulation)/(Ratio100% Stimulation−Ratio0% Stimulation) where unstimulated cells (0% stimulation) were the negative control and stimulated cells (100% stimulation) were used as the positive control.
# IRAK4 enzyme = IRAK4 enzyme (Homo sapiens (Human), UniProt Q9NWZ3); assay: IRAK4 Biochemical Assay (TR-FRET, STK1 KinEASE)
# Description: IRAK4 enzyme (Carna Biosciences, Chuo-ku, Kobe, Japan) activity was measured by detecting phosphorylated peptide substrate formation using an antibody against the phosphorylated peptide substrate. This is a time-resolved fluorescence resonance energy transfer (TR-FRET) immunoassay, based on the STK1 KinEASE Assay (Cisbio, Bedford, Mass.). The assay was designed as a simple two-step, endpoint assay (a 5 μl enzyme reaction followed by 5 μl stop and detect Solution) performed in ProxiPlate-384 Plus plates (Perkin Elmer, Waltham, Mass.). […] Compounds diluted in DMSO were spotted into 384 well plates using a Labcyte® Echo 550 Liquid Handling System prior to addition of IRAK4 enzyme and peptide substrate. Reaction solutions were delivered using a Multi-Flo (Bio-Tek Instruments). The enzyme and peptide solution was incubated with compound for 15 minutes at room temp before the reaction was initiated by the addition of ATP. The standard 5 μl reaction mixture contained 500 μM ATP, 2 μM peptide (STK1 Peptide), 0.75 nM of IRAK4 in reaction buffer (50 mM HEPES, pH 7.0, 0.02% NaN3, 0.01% BSA, 0.1 mM Orthovanadate, 5 mM MgCl2, 0.025% NP-40, 1 mM DTT). After 120 min of incubation at room temperature, 5 μl of Stop and Detect Solution (1:100 Cryptate labeled anti-phosphorylated peptide antibody solution and 125 nM Tracer in a 50 mM HEPES pH 7.0 detection buffer containing sufficient EDTA) was added. The plate was then further incubated for 60 minutes at room temperature and read on Envision 2103 Multilabeled reader (PerkinElmer) with excitation/emission/FRET emission at 340 nm/615 nm/665 nm, respectively. Fluorescence intensities at 615 nm and 665 nm emission wavelengths were expressed as a ratio (665 nm/615 nm). Percentage of inhibition was calculated as below: % Inhibition=100×(RatioSample−Ratio0% Inhibition)/(Ratio100% Inhibition−Ratio0% Inhibition)
# The 0% inhibition value comes from control wells lacking inhibitor.
# [1] = human monocytes, second part of Table 2 (compounds 33-343), unit inferred
# Chain of IRAK4 enzyme (Q9NWZ3 whole entry): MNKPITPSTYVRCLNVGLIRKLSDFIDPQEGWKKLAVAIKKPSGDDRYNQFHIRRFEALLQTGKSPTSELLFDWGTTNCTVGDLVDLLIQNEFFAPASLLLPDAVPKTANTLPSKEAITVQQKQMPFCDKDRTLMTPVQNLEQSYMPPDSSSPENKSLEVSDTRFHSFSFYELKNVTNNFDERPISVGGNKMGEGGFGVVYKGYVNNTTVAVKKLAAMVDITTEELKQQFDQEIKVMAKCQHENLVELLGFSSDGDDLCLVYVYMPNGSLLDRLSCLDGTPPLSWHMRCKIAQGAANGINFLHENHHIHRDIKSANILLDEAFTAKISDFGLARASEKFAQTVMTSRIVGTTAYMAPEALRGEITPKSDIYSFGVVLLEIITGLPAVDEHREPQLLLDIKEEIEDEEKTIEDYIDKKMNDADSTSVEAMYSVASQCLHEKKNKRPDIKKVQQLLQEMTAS
smiles,measurement,setting,value
"CC(=O)N1CCN(c2nnc(-c3cnc(-c4ccc5cc(C#N)cnn45)cc3NC(C)C)s2)CC1 [Compound 232, 7-(5-(5-(4-acetylpiperazin-1-yl)-1,3,4-thiadiazol-2-yl)-4-(isopropylamino)pyridin-2-yl)pyrrolo[1,2-b]pyridazine-3-carbonitrile]",EC50,TNFα; [1],7.4 nM
same,IC50,IRAK4 enzyme,0.62 nM
"CC(=O)N1C2CC1CN(c1nnc(-c3cnc(-c4ccc5cc(C#N)cnn45)cc3NC(C)C)s1)C2 [Compound 258, 7-(5-(5-(6-acetyl-3,6-diazabicyclo[3.1.1]heptan-3-yl)-1,3,4-thiadiazol-2-yl)-4-(isopropylamino)pyridin-2-yl)pyrrolo[1,2-b]pyridazine-3-carbonitrile]",EC50,TNFα,5.8 nM
same,IC50,IRAK4 enzyme,1.26 nM
"CC(=O)N1CC2CCC(C1)N2c1nnc(-c2cnc(-c3ccc4cc(C#N)cnn34)cc2NC(C)C)s1 [Compound 260, 7-(5-(5-(3-acetyl-3,8-diazabicyclo[3.2.1]octan-8-yl)-1,3,4-thiadiazol-2-yl)-4-(isopropylamino)pyridin-2-yl)pyrrolo[1,2-b]pyridazine-3-carbonitrile]",EC50,TNFα,15.8 nM
same,IC50,IRAK4 enzyme,2.56 nM
"CC(=O)N1CC2CC(C1)N2c1nnc(-c2cnc(-c3ccc4cc(C#N)cnn34)cc2NC(C)C)s1 [Compound 261, 7-(5-(5-(3-acetyl-3,6-diazabicyclo[3.1.1]heptan-6-yl)-1,3,4-thiadiazol-2-yl)-4-(isopropylamino)pyridin-2-yl)pyrrolo[1,2-b]pyridazine-3-carbonitrile]",EC50,TNFα,18.3 nM
same,IC50,IRAK4 enzyme,0.73 nM
"CC(=O)N1C2CCC1CN(c1nnc(-c3cnc(-c4ccc5cc(C#N)cnn45)cc3NC3(C)COC3)s1)C2 [Compound 264, 7-(5-(5-(8-acetyl-3,8-diazabicyclo[3.2.1]octan-3-yl)-1,3,4-thiadiazol-2-yl)-4-((3-methyloxetan-3-yl)amino)pyridin-2-yl)pyrrolo[1,2-b]pyridazine-3-carbonitrile]",EC50,TNFα,2.7 nM
same,IC50,IRAK4 enzyme,0.59 nM
"CC(=O)N1C[C@H]2COC[C@@H](C1)N2c1nnc(-c2cnc(-c3ccc4cc(C#N)cnn34)cc2NC(C)C)s1 [Compound 266, 7-(5-(5-((1R,5S)-7-acetyl-3-oxa-7,9-diazabicyclo[3.3.1]nonan-9-yl)-1,3,4-thiadiazol-2-yl)-4-(isopropylamino)pyridin-2-yl)pyrrolo[1,2-b]pyridazine-3-carbonitrile]",EC50,TNFα,3.2 nM
same,IC50,"IRAK4 enzyme; second part of Table 2 (compounds 33-343), unit inferred, read-out: IC50 IRAK4-HTBS",0.49 nM
"CC(=O)N1[C@@H]2COC[C@H]1CN(c1nnc(-c3cnc(-c4ccc5cc(C#N)cnn45)cc3NC3CCOCC3)s1)C2 [Compound 269, 7-(5-(5-((1R,5S)-9-acetyl-3-oxa-7,9-diazabicyclo[3.3.1]nonan-7-yl)-1,3,4-thiadiazol-2-yl)-4-((tetrahydro-2H-pyran-4-yl)amino)pyridin-2-yl)pyrrolo[1,2-b]pyridazine-3-carbonitrile]",EC50,TNFα,5.8 nM
same,IC50,IRAK4 enzyme,0.8 nM
"CC(C)Nc1cc(-c2ccc3cc(C#N)cnn23)ncc1-c1nnc(CC#N)s1 [Compound 321, 7-(5-(5-(cyanomethyl)-1,3,4-thiadiazol-2-yl)-4-(isopropylamino)pyridin-2-yl)pyrrolo[1,2-b]pyridazine-3-carbonitrile]",EC50,TNFα; [1],53.5 nM
same,IC50,IRAK4 enzyme,1.46 nM
"CC(C)Nc1cc(-c2ccc3cc(C#N)cnn23)ncc1-c1nnc(C2CCOC2)s1 (centres unmarked) [Compound 322, 7-(4-(isopropylamino)-5-(5-(tetrahydrofuran-3-yl)-1,3,4-thiadiazol-2-yl)pyridin-2-yl)pyrrolo[1,2-b]pyridazine-3-carbonitrile]",EC50,TNFα; [1],419 nM
same,IC50,IRAK4 enzyme,0.31 nM
"CC(=O)N[C@H]1CN(c2nnc(-c3cnc(-c4ccc5cc(C#N)cnn45)cc3NC(C)C)s2)CC12CC2 [Compound 323, (R)-N-(5-(5-(6-(3-cyanopyrrolo[1,2-b]pyridazin-7-yl)-4-(isopropylamino)pyridin-3-yl)-1,3,4-thiadiazol-2-yl)-5-azaspiro[2.4]heptan-7-yl)acetamide]",EC50,TNFα; [1],3.7 nM
same,IC50,IRAK4 enzyme,0.62 nM
"CC(=O)N[C@@H]1CN(c2nnc(-c3cnc(-c4ccc5cc(C#N)cnn45)cc3NC(C)C)s2)CC12CC2 [Compound 324, (S)-N-(5-(5-(6-(3-cyanopyrrolo[1,2-b]pyridazin-7-yl)-4-(isopropylamino)pyridin-3-yl)-1,3,4-thiadiazol-2-yl)-5-azaspiro[2.4]heptan-7-yl)acetamide]",EC50,TNFα; [1],19.1 nM
same,IC50,IRAK4 enzyme,0.99 nM
"CC(C)Nc1cc(-c2ccc3cc(C#N)cnn23)ncc1-c1nnc(-n2cccn2)s1 [Compound 325, 7-(5-(5-(1H-pyrazol-1-yl)-1,3,4-thiadiazol-2-yl)-4-(isopropylamino)pyridin-2-yl)pyrrolo[1,2-b]pyridazine-3-carbonitrile]",EC50,TNFα; [1],1000 nM
same,IC50,IRAK4 enzyme,8.07 nM
"CC(C)Nc1cc(-c2ccc3cc(C#N)cnn23)ncc1-c1nnc(-n2cnc(C3CC3)c2)s1 [Compound 326, 7-(5-(5-(4-cyclopropyl-1H-imidazol-1-yl)-1,3,4-thiadiazol-2-yl)-4-(isopropylamino)pyridin-2-yl)pyrrolo[1,2-b]pyridazine-3-carbonitrile]",IC50,IRAK4 enzyme,6.01 nM
"CC(=O)NC1CN(c2nnc(-c3cnc(-c4ccc5cc(C#N)cnn45)cc3NC(C)C)s2)CC1(F)F (centres unmarked) [Compound 327, N-(1-(5-(6-(3-cyanopyrrolo[1,2-b]pyridazin-7-yl)-4-(isopropylamino)pyridin-3-yl)-1,3,4-thiadiazol-2-yl)-4,4-difluoropyrrolidin-3-yl)acetamide]",EC50,TNFα; [1],10.2 nM
same,IC50,IRAK4 enzyme,0.37 nM
"CC(C)Nc1cc(-c2ccc3cc(C#N)cnn23)ncc1-c1nnc(N2CC(N3CCC(F)(F)C3)C2)s1 [Compound 328, 7-(5-(5-(3-(3,3-difluoropyrrolidin-1-yl)azetidin-1-yl)-1,3,4-thiadiazol-2-yl)-4-(isopropylamino)pyridin-2-yl)pyrrolo[1,2-b]pyridazine-3-carbonitrile]",EC50,TNFα; [1],80.5 nM
same,IC50,IRAK4 enzyme,1.02 nM
"CC(C)Nc1cc(-c2ccc3cc(C#N)cnn23)ncc1-c1nnc(N2CCC[C@H]2CO)s1 [Compound 329, (S)-7-(5-(5-(2-(hydroxymethyl)pyrrolidin-1-yl)-1,3,4-thiadiazol-2-yl)-4-(isopropylamino)pyridin-2-yl)pyrrolo[1,2-b]pyridazine-3-carbonitrile]",EC50,TNFα; [1],54.2 nM
same,IC50,IRAK4 enzyme,0.84 nM
"CC(=O)N[C@@H]1CCN(c2nnc(-c3cnc(-c4ccc5cc(C#N)cnn45)cc3NC(C)C)s2)C1 [Compound 330, (R)-N-(1-(5-(6-(3-cyanopyrrolo[1,2-b]pyridazin-7-yl)-4-(isopropylamino)pyridin-3-yl)-1,3,4-thiadiazol-2-yl)pyrrolidin-3-yl)acetamide]",EC50,TNFα; [1],47.1 nM
same,IC50,IRAK4 enzyme,1.8 nM
"CC(=O)N[C@H]1CCN(c2nnc(-c3cnc(-c4ccc5cc(C#N)cnn45)cc3NC(C)C)s2)C1 [Compound 331, (S)-N-(1-(5-(6-(3-cyanopyrrolo[1,2-b]pyridazin-7-yl)-4-(isopropylamino)pyridin-3-yl)-1,3,4-thiadiazol-2-yl)pyrrolidin-3-yl)acetamide]",EC50,TNFα; [1],81.4 nM
same,IC50,IRAK4 enzyme,1.21 nM
"CC(C)Nc1cc(-c2ccc3cc(C#N)cnn23)ncc1-c1nnc(C2CCC(C#N)CC2)s1 (centres unmarked) [Compound 333, 7-(5-(5-(4-cyanocyclohexyl)-1,3,4-thiadiazol-2-yl)-4-(isopropylamino)pyridin-2-yl)pyrrolo[1,2-b]pyridazine-3-carbonitrile]",EC50,TNFα; [1],1000 nM
same,IC50,IRAK4 enzyme,1.99 nM
"CC(=O)N[C@H]1CCN(c2nnc(-c3cnc(-c4ccc5cc(C#N)cnn45)cc3NC(C)C)s2)C[C@@H]1O [Example 64, N-((3S,4S)-1-(5-(6-(3-cyanopyrrolo[1,2-b]pyridazin-7-yl)-4-(isopropylamino)pyridin-3-yl)-1,3,4-thiadiazol-2-yl)-3-hydroxypiperidin-4-yl)acetamide]",IC50,IRAK4 enzyme,0.28 nM
